Data set [1] in a line: Tb^3+ affinity of LBT-S-peptide fusions by isothermal titration calorimetry. In kind it is binding. From the text:
The affinity of the LBT site for terbium in the context of the fusion peptide was also unchanged when compared with the unmodified LBT sequences with affinities in the low μM range.

Data set [2] is described as follows: Steady-state terbium fluorescence of LBT-S-peptide fusions compared to LBT1. In kind it is physicochemical. The source says: Steady-state fluorescence experiments of the LBT-S-peptide fusions indicated minimal impact of the fusion on the terbium fluorescence compared to LBT1 (see Table 2).
The nature of data set [3]: Tb^3+ binding affinity of the disulfide constrained LBT. How it is done: Affinity is determined by titration with lanthanide and detection using fluorescence, circular dichroism, NMR or calorimetry. In the case of tightly binding sequences, it may be necessary to employ competition experiments.
The disulfide constained LBT, ACA-[…]-CAA (known as CC2) binds to Tb^3+ with a KD of 300 nM, an order of magnitude more tightly than other reported Ca-binding peptides. (Kanellis, et al. Arch. Biochem. Biophys. 1983, 220, 530-540; Lopez, et al. Proc. Natl. Acad. Sci. USA 2002, 99, 1298-1303).

Data set [4] is described as follows: Lanthanide affinity of free LBT and HIS-LBT-Ub by calorimetry. Type of data set: binding. As to conditions: read-out: KD for lanthanide ions. From the text: The purified LBT-protein conjugates were further studied to assess whether the fluorescence and binding properties of the LBT were preserved in the protein conjugates.
The target in data set [5] is T1, RNAse S-protein (bovine, UniProt P61823 47-150).
T1 construct: range 21-124; Numbers count on mature RNAse A; also called Pro-S
T1 sequence (looked up): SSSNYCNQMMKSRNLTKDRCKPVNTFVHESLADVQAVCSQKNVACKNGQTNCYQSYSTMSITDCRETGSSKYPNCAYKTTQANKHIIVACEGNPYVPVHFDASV
The data set is described as follows: isothermal titration calorimetry. (In ITC the heat of successive injections is recorded.)

Data set [6] deals with T2, LBT-GPPP-S-Peptide.
T2 chain: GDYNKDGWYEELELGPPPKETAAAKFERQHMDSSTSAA

Data set [7] has as its target LBT-PP-S-Peptide.
Where [8] appears, read: read-out: KD Tb^3+ S-Peptide, fusion peptide alone.
[9] abbreviates: read-out: KD Tb^3+ [S-Peptide/S-protein], peptide complexed with S-protein.

With `CSCC[C@H](NC(=O)[C@H](Cc1c[nH]cn1)NC(=O)[C@H](CCC(N)=O)NC(=O)[C@H](CCCNC(=N)N)NC(=O)[C@H](CCC(=O)O)NC(=O)[C@H](Cc1ccccc1)NC(=O)[C@H](CCCCN)NC(=O)[C@H](C)NC(=O)[C@H](C)NC(=O)[C@H](C)NC(=O)[C@@H](NC(=O)[C@H](CCC(=O)O)NC(=O)[C@H](CCCCN)NC(=O)[C@@H]1CCCN1C(=O)[C@@H]1CCCN1C(=O)[C@@H]1CCCN1C(=O)CNC(=O)[C@H](CC(C)C)NC(=O)[C@H](CCC(=O)O)NC(=O)[C@H](CC(C)C)NC(=O)[C@H](CCC(=O)O)NC(=O)[C@H](CCC(=O)O)NC(=O)[C@H](Cc1ccc(O)cc1)NC(=O)[C@H](Cc1c[nH]c2ccccc12)NC(=O)CNC(=O)[C@H](CC(=O)O)NC(=O)[C@H](CCCCN)NC(=O)[C@H](CC(N)=O)NC(=O)[C@H](Cc1ccc(O)cc1)NC(=O)[C@H](CC(=O)O)NC(=O)CN)[C@@H](C)O)C(=O)N[C@@H](CC(=O)O)C(=O)N[C@@H](CO)C(=O)N[C@@H](CO)C(=O)N[C@H](C(=O)N[C@@H](CO)C(=O)N[C@@H](C)C(=O)N[C@@H](C)C(=O)O)[C@@H](C)O` [LBT-GPPP-S-Peptide], the Kd was found to be 6.6 µM in data set [1] (setting [8]) and 6.7 µM in data set [1] (setting [9]). Also, the “Fluorescence Relative to LBT1” value in data set [2] was 96%.

As to `CSCC[C@H](NC(=O)[C@H](Cc1c[nH]cn1)NC(=O)[C@H](CCC(N)=O)NC(=O)[C@H](CCCNC(=N)N)NC(=O)[C@H](CCC(=O)O)NC(=O)[C@H](Cc1ccccc1)NC(=O)[C@H](CCCCN)NC(=O)[C@H](C)NC(=O)[C@H](C)NC(=O)[C@H](C)NC(=O)[C@@H](NC(=O)[C@H](CCC(=O)O)NC(=O)[C@H](CCCCN)NC(=O)[C@@H]1CCCN1C(=O)[C@@H]1CCCN1C(=O)[C@H](CC(C)C)NC(=O)[C@H](CCC(=O)O)NC(=O)[C@H](CC(C)C)NC(=O)[C@H](CCC(=O)O)NC(=O)[C@H](CCC(=O)O)NC(=O)[C@H](Cc1ccc(O)cc1)NC(=O)[C@H](Cc1c[nH]c2ccccc12)NC(=O)CNC(=O)[C@H](CC(=O)O)NC(=O)[C@H](CCCCN)NC(=O)[C@H](CC(N)=O)NC(=O)[C@H](Cc1ccc(O)cc1)NC(=O)[C@H](CC(=O)O)NC(=O)CN)[C@@H](C)O)C(=O)N[C@@H](CC(=O)O)C(=O)N[C@@H](CO)C(=O)N[C@@H](CO)C(=O)N[C@H](C(=O)N[C@@H](CO)C(=O)N[C@@H](C)C(=O)N[C@@H](C)C(=O)O)[C@@H](C)O` [LBT-PP-S-Peptide], the Kd in data set [1] (setting [8]) is 3.3 µM; in data set [1] (setting [9]), 9.6 µM. Moreover, the “Fluorescence Relative to LBT1” value in data set [2] was determined as 86%.

As to “ACA-DYNKDGWYEELE-CAA [CC2, cysteine constrained variant of LBT1]”, the Kd in data set [3] came to 0.3 µM.

In the case of GDYNKDGWYEELEL [LBT1], the “KD Tb^3+ S-Peptide” value in data set [1] (fusion peptide alone) was “low μM”. Besides, in data set [4], the Kd stood at 5 µM.

B1: LBT-GPPP-S-Peptide (peptide)
peptide: T2 chain
notes: also called LBT-S-peptide fusion; LBT tagged S-peptide analog
Regarding B1, the Kd in data set [5] came out at 0.3 µM.

B2: RNAse S-protein (protein)
chain: T1 sequence (looked up)
Take B2: the “catalytic activity of the reconstituted enzymes (cleavage of a fluorescent RNA substrate)” value in data set [6] and in data set [7] was “the S-protein/LBT-S-peptide construct has similar catalytic activity to the native RNAse S in the absence of Tb^+3” throughout.

Values taken from patent US7101667B2, “Lanthanide binding tags” (Massachusetts Institute of Technology, priority 2001, dated 2006).
